# Measurements taken from ChEMBL document CHEMBL3885861, “Open TG-GATES”.
# Organism: Rattus norvegicus
# Experiment: Open TG-GATES - Regimen: Daily Repeat
# Type: toxicity, organism-based, Sprague-Dawley
# Set-up: regimen Daily Repeat, gender Male, age 6 weeks
# Conditions: in vivo, po, route gavage; for APTT / Bas / Eos / Fbg / Hb / Ht / Lym / MCH / MCHC / MCV / Mono / Neu / PT / Plat / RBC / Ret / WBC: tissue Blood; for A/G / ALP / ALT / AST / BUN / CRE / Ca / Cl / DBIL / GLC / IP / K / LDH / Na / PL / RALB / TBIL / TC / TG / TP / gamma-GTP: tissue Plasma
# [1] = 0 mg/kg, 72 h, dose level Control, time 3 day
# [2] = 0 mg/kg, […], dose level Control, time 7 day
# [3] = 0 mg/kg, […], dose level Control, time 14 day
# [4] = 0 mg/kg, […], dose level Control, time 28 day
# [5] = 10 mg/kg, 72 h, dose level Low, time 3 day
# [6] = 10 mg/kg, […], dose level Low, time 7 day
# [7] = 10 mg/kg, […], dose level Low, time 14 day
# [8] = 10 mg/kg, […], dose level Low, time 28 day
compound,measurement,setting,value
Cn1cc[nH]c1=S [METHIMAZOLE],TERMINAL_BW,[1],217.3 g
same,APTT,[1],21.2 s
same,Bas,[1],0%
same,Eos,[1],1%
same,Fbg,[1],310.8 mg/dL
same,Hb,[1],13.8 g/dL
same,Ht,[1],38.2%
same,Lym,[1],84.8%
same,MCH,[1],22.7 pg
same,MCHC,[1],36.1%
same,MCV,[1],62.8 fL
same,Mono,[1],1.6%
same,Neu,[1],11.8%
same,PT,[1],16.2 s
same,Plat,[1],126.3 x10_4/uL
same,RBC,[1],609 x10_4/ul
same,Ret,[1],6.7%
same,WBC,[1],107.5 x10_2/uL
same,A/G,[1],1.3
same,ALP,[1],1736 IU/L
same,ALT,[1],41.4 IU/L
same,AST,[1],68 IU/L
same,BUN,[1],17 mg/dL
same,CRE,[1],0.1 mg/dL
same,Ca,[1],10.8 mg/dL
same,Cl,[1],105.8 meq/L
same,DBIL,[1],0.002 mg/dL
same,GLC,[1],190.8 mg/dL
same,IP,[1],6.8 mg/dL
same,K,[1],4.1 meq/L
same,LDH,[1],187.8 IU/L
same,Na,[1],141.8 meq/L
same,PL,[1],161 mg/dL
same,RALB,[1],3.2 g/dL
same,TBIL,[1],0.014 mg/dL
same,TC,[1],89.4 mg/dL
same,TG,[1],93.8 mg/dL
same,TP,[1],5.7 g/dL
same,gamma-GTP,[1],1.2 IU/L
same,TERMINAL_BW,[2],252.2 g
same,TERMINAL_BW,[3],307.5 g
same,TERMINAL_BW,[4],373.3 g
same,APTT,[2],20.9 s
same,Bas,[2],0%
same,Eos,[2],0.8%
same,Fbg,[2],321.4 mg/dL
same,Hb,[2],14.2 g/dL
same,Ht,[2],38.9%
same,Lym,[2],80.2%
same,MCH,[2],22.3 pg
same,MCHC,[2],36.5%
same,MCV,[2],60.9 fL
same,Mono,[2],2.6%
same,Neu,[2],15.6%
same,PT,[2],15.9 s
same,Plat,[2],115.9 x10_4/uL
same,RBC,[2],638 x10_4/ul
same,Ret,[2],5.8%
same,WBC,[2],112.3 x10_2/uL
same,APTT,[3],22.2 s
same,Bas,[3],0%
same,Eos,[3],0.6%
same,Fbg,[3],331.8 mg/dL
same,Hb,[3],13.7 g/dL
same,Ht,[3],39.4%
same,Lym,[3],80.6%
same,MCH,[3],20.5 pg
same,MCHC,[3],34.9%
same,MCV,[3],58.7 fL
same,Mono,[3],1.8%
same,Neu,[3],15.8%
same,PT,[3],16.3 s
same,Plat,[3],117.4 x10_4/uL
same,RBC,[3],672.6 x10_4/ul
same,Ret,[3],4.9%
same,WBC,[3],112.2 x10_2/uL
same,APTT,[4],22.6 s
same,Bas,[4],0%
same,Eos,[4],1%
same,Fbg,[4],316.6 mg/dL
same,Hb,[4],15.2 g/dL
same,Ht,[4],42.9%
same,Lym,[4],82.4%
same,MCH,[4],19.3 pg
same,MCHC,[4],35.3%
same,MCV,[4],54.7 fL
same,Mono,[4],2.2%
same,Neu,[4],13.2%
same,PT,[4],16.4 s
same,Plat,[4],97.4 x10_4/uL
same,RBC,[4],785.4 x10_4/ul
same,Ret,[4],2.6%
same,WBC,[4],113.4 x10_2/uL
same,A/G,[2],1.2
same,ALP,[2],1790.2 IU/L
same,ALT,[2],39 IU/L
same,AST,[2],75.8 IU/L
same,BUN,[2],17.2 mg/dL
same,CRE,[2],0.2 mg/dL
same,Ca,[2],10.6 mg/dL
same,Cl,[2],107 meq/L
same,DBIL,[2],0 mg/dL
same,GLC,[2],195.4 mg/dL
same,IP,[2],7.5 mg/dL
same,K,[2],4.1 meq/L
same,LDH,[2],290.8 IU/L
same,Na,[2],142.2 meq/L
same,PL,[2],163.4 mg/dL
same,RALB,[2],3 g/dL
same,TBIL,[2],0.002 mg/dL
same,TC,[2],84.8 mg/dL
same,TG,[2],126 mg/dL
same,TP,[2],5.5 g/dL
same,gamma-GTP,[2],1 IU/L
same,A/G,[3],1.1
same,ALP,[3],1783.8 IU/L
same,ALT,[3],42.8 IU/L
same,AST,[3],71 IU/L
same,BUN,[3],18.2 mg/dL
same,CRE,[3],0.2 mg/dL
same,Ca,[3],10.6 mg/dL
same,Cl,[3],106 meq/L
same,DBIL,[3],0 mg/dL
same,GLC,[3],182 mg/dL
same,IP,[3],7 mg/dL
same,K,[3],4.3 meq/L
same,LDH,[3],198.6 IU/L
same,Na,[3],142.2 meq/L
same,PL,[3],158.6 mg/dL
same,RALB,[3],3 g/dL
same,TBIL,[3],0.014 mg/dL
same,TC,[3],75.4 mg/dL
same,TG,[3],150.2 mg/dL
same,TP,[3],5.8 g/dL
same,gamma-GTP,[3],1.6 IU/L
same,A/G,[4],1.1
same,ALP,[4],1110.8 IU/L
same,ALT,[4],40.4 IU/L
same,AST,[4],65.8 IU/L
same,BUN,[4],18.4 mg/dL
same,CRE,[4],0.2 mg/dL
same,Ca,[4],10.5 mg/dL
same,Cl,[4],105.4 meq/L
same,DBIL,[4],0.002 mg/dL
same,GLC,[4],198.8 mg/dL
same,IP,[4],6.3 mg/dL
same,K,[4],4.4 meq/L
same,LDH,[4],191.8 IU/L
same,Na,[4],142.4 meq/L
same,PL,[4],149.2 mg/dL
same,RALB,[4],3.2 g/dL
same,TBIL,[4],0.002 mg/dL
same,TC,[4],65.8 mg/dL
same,TG,[4],168 mg/dL
same,TP,[4],6 g/dL
same,gamma-GTP,[4],1 IU/L
same,TERMINAL_BW,[5],223.1 g
same,APTT,[5],19.4 s
same,Bas,[5],0%
same,Eos,[5],1.2%
same,Fbg,[5],325.2 mg/dL
same,Hb,[5],13.7 g/dL
same,Ht,[5],38.6%
same,Lym,[5],81.8%
same,MCH,[5],21.9 pg
same,MCHC,[5],35.6%
same,MCV,[5],61.5 fL
same,Mono,[5],2.6%
same,Neu,[5],13.6%
same,PT,[5],16.4 s
same,Plat,[5],128.5 x10_4/uL
same,RBC,[5],628.2 x10_4/ul
same,Ret,[5],6.5%
same,WBC,[5],95 x10_2/uL
same,A/G,[5],1.1
same,ALP,[5],1789.2 IU/L
same,ALT,[5],40.8 IU/L
same,AST,[5],65.6 IU/L
same,BUN,[5],16.8 mg/dL
same,CRE,[5],0.1 mg/dL
same,Ca,[5],11.1 mg/dL
same,Cl,[5],106.8 meq/L
same,DBIL,[5],0 mg/dL
same,GLC,[5],184 mg/dL
same,IP,[5],6.3 mg/dL
same,K,[5],4.2 meq/L
same,LDH,[5],170 IU/L
same,Na,[5],141.8 meq/L
same,PL,[5],183 mg/dL
same,RALB,[5],3.1 g/dL
same,TBIL,[5],0.004 mg/dL
same,TC,[5],101.6 mg/dL
same,TG,[5],128.6 mg/dL
same,TP,[5],5.8 g/dL
same,gamma-GTP,[5],1.2 IU/L
same,TERMINAL_BW,[6],253.1 g
same,TERMINAL_BW,[7],300.3 g
same,TERMINAL_BW,[8],356.4 g
same,APTT,[6],20.3 s
same,Bas,[6],0%
same,Eos,[6],1%
same,Fbg,[6],333 mg/dL
same,Hb,[6],13.9 g/dL
same,Ht,[6],38.1%
same,Lym,[6],80%
same,MCH,[6],22.3 pg
same,MCHC,[6],36.4%
same,MCV,[6],61.3 fL
same,Mono,[6],2.6%
same,Neu,[6],15.6%
same,PT,[6],16.4 s
same,Plat,[6],121.5 x10_4/uL
same,RBC,[6],622.8 x10_4/ul
same,Ret,[6],5.6%
same,WBC,[6],102.3 x10_2/uL
same,APTT,[7],22.1 s
same,Bas,[7],0%
same,Eos,[7],0.8%
same,Fbg,[7],318.8 mg/dL
same,Hb,[7],14 g/dL
same,Ht,[7],40.7%
same,Lym,[7],85.2%
same,MCH,[7],20.1 pg
same,MCHC,[7],34.5%
same,MCV,[7],58.4 fL
same,Mono,[7],2%
same,Neu,[7],11.6%
same,PT,[7],16.5 s
same,Plat,[7],110.2 x10_4/uL
same,RBC,[7],697 x10_4/ul
same,Ret,[7],4.3%
same,WBC,[7],101.8 x10_2/uL
same,APTT,[8],23.7 s
same,Bas,[8],0%
same,Eos,[8],1%
same,Fbg,[8],306 mg/dL
same,Hb,[8],15 g/dL
same,Ht,[8],42.4%
same,Lym,[8],84.4%
same,MCH,[8],19.4 pg
same,MCHC,[8],35.4%
same,MCV,[8],54.8 fL
same,Mono,[8],2.4%
same,Neu,[8],11%
same,PT,[8],16.7 s
same,Plat,[8],87.5 x10_4/uL
same,RBC,[8],773 x10_4/ul
same,Ret,[8],2%
same,WBC,[8],108.5 x10_2/uL
same,A/G,[6],1.1
same,ALP,[6],1430.4 IU/L
same,ALT,[6],38 IU/L
same,AST,[6],65.8 IU/L
same,BUN,[6],17.4 mg/dL
same,CRE,[6],0.2 mg/dL
same,Ca,[6],10.8 mg/dL
same,Cl,[6],107.4 meq/L
same,DBIL,[6],0 mg/dL
same,GLC,[6],177.8 mg/dL
same,IP,[6],7.1 mg/dL
same,K,[6],4.1 meq/L
same,LDH,[6],232.4 IU/L
same,Na,[6],142 meq/L
same,PL,[6],171.8 mg/dL
same,RALB,[6],3 g/dL
same,TBIL,[6],0 mg/dL
same,TC,[6],90.8 mg/dL
same,TG,[6],149 mg/dL
same,TP,[6],5.9 g/dL
same,gamma-GTP,[6],1 IU/L
same,A/G,[7],1.1
same,ALP,[7],1277.4 IU/L
same,ALT,[7],40.6 IU/L
same,AST,[7],62.6 IU/L
same,BUN,[7],17.6 mg/dL
same,CRE,[7],0.2 mg/dL
same,Ca,[7],10.6 mg/dL
same,Cl,[7],106.6 meq/L
same,DBIL,[7],0 mg/dL
same,GLC,[7],176.8 mg/dL
same,IP,[7],6.1 mg/dL
same,K,[7],4.1 meq/L
same,LDH,[7],197.6 IU/L
same,Na,[7],142.2 meq/L
same,PL,[7],170.2 mg/dL
same,RALB,[7],3.2 g/dL
same,TBIL,[7],0.01 mg/dL
same,TC,[7],96 mg/dL
same,TG,[7],134 mg/dL
same,TP,[7],6.1 g/dL
same,gamma-GTP,[7],2 IU/L
same,A/G,[8],1.1
same,ALP,[8],1026.6 IU/L
same,ALT,[8],29.8 IU/L
same,AST,[8],51 IU/L
same,BUN,[8],19.2 mg/dL
same,CRE,[8],0.2 mg/dL
same,Ca,[8],10.7 mg/dL
same,Cl,[8],106.4 meq/L
same,DBIL,[8],0.002 mg/dL
same,GLC,[8],184.8 mg/dL
same,IP,[8],5.9 mg/dL
same,K,[8],4.1 meq/L
same,LDH,[8],143.8 IU/L
same,Na,[8],142.6 meq/L
same,PL,[8],160 mg/dL
same,RALB,[8],3.5 g/dL
same,TBIL,[8],0.004 mg/dL
same,TC,[8],81.2 mg/dL
same,TG,[8],165.4 mg/dL
same,TP,[8],6.6 g/dL
same,gamma-GTP,[8],1.8 IU/L
